A short description of series [1]: log P determination (neutral / acidic, pH 2.3).
The test system of another series is Pyrenophora teres. The series can be described thus: Pyrenophora teres test (barley)/protective. In kind it is in vivo. Conditions: 500 ppm active substance, protective, evaluation 7-9 days after inoculation, read-out: degree of effectiveness.
The subject of another series is Alternaria solani. Put plainly: Alternaria test (tomato)/protective. In kind it is in vivo. Conditions: 168 h, 500 ppm active substance, protective, evaluation 7 days after inoculation, read-out: degree of effectiveness. In outline: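 Young tomato plants sprayed with emulsified active substance at the stated rate, inoculated 1 day later with Alternaria solani spores. Held 24 h at 100% RH and 20 °C, then 96% RH, 20 °C. Scored 7 days post-inoculation; 0% = untreated control, 100% = no infestation.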

Another series concerns Cochliobolus miyabeanus. Put plainly: Cochliobolus test (rice)/protective. In kind it is in vivo. The following applies: 250 ppm active substance, protective, evaluation 4 days after inoculation. How it is done:
Cochliobolus Test (Rice)/Protective
(§1) To prepare a suitable active substance composition, 1 part by weight of active substance is mixed with the given amounts of solvent and emulsifier and the concentrate is diluted to the desired concentration using water.
For the testing of protective effectiveness, young plants are sprayed with the active substance composition in the application rate given. After the spray coating has been dried on, the plants are inoculated with an aqueous suspension of the spores of Cochliobolus miyabeanus and then remain in an incubation chamber at approximately 25° C. and 100% relative humidity for 1 day.
Evaluation is carried out 4 days after the inoculation. In this connection, 0% means a degree of effectiveness corresponding to that of the control, while a degree of effectiveness of 100% means that no infestation is observed.

A further series can be described thus: physchem. The following applies: pH 2.3.
The test system of a further series is Uromyces appendiculatus. Put plainly: Uromyces test (beans)/protective. In kind it is in vivo. Conditions: 240 h, 100 ppm active substance, protective, evaluation 10 days after inoculation, read-out: degree of effectiveness. In outline: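 Young bean plants were sprayed with the formulated compound at the stated application rate, dried, then inoculated with U. appendiculatus spores. They were held 1 day at ~20 °C and 100% RH, then in a greenhouse at ~21 °C and ~90% RH. Efficacy was scored 10 days post-inoculation: 0% equals the control, 100% means no infestation.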

For a further series, the system named is Phakopsora pachyrhizi. Put plainly: Phakopsora test (soya)/protective. Conditions: 264 h, 100 ppm active substance, protective, evaluation 11 days after inoculation, read-out: degree of effectiveness. In kind it is in vivo. How it is done:
Phakopsora Test (Soya)/Protective
as §1
For the testing of protective effectiveness, young plants are sprayed with the active substance composition in the application rate given. After the spray coating has been dried on, the plants are inoculated with an aqueous suspension of the spores of Phakopsora pachyrhizi and then remain in an incubation chamber at approximately 20° C. and 80% relative humidity for 1 day.
Evaluation is carried out 11 days after the inoculation. In this connection, 0% means a degree of effectiveness corresponding to that of the control, while a degree of effectiveness of 100% means that no infestation is observed.

The subject of the next series is Sphaerotheca fuliginea. The series can be described thus: Sphaerotheca test (cucumber)/protective. In kind it is in vivo. The following applies: Podosphaera fuliginea, 168 h, 100 ppm active substance, protective, evaluation 7 days after inoculation, read-out: degree of effectiveness. In outline:
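Young cucumber plants were sprayed protectively with the formulated compound at the stated rate, dried, then inoculated with S. fuliginea spores. Kept in greenhouse at ~23° C. and ~70% relative humidity; efficacy scored 7 days post-inoculation (0% = untreated control, 100% = no infestation).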

Where only a bound is given, the exact number is not on record here.

Regarding `Cc1cc(Oc2nc(C3CC3)ns2)c(C)cc1/N=C/N1CCCCC1` [Compound 3, 4-[(3-Cyclopropyl-1,2,4-thiadiazol-5-yl)oxy]-2,5-dimethyl-N-[(1E)-piperidin-1-ylmethyl-idene]aniline], the “log P acidic” value in series [1] came out at 1.75. Take `Cc1cc(Oc2nc(C3CC3)ns2)c(C)cc1/N=C/N1CCSCC1` [Compound 4, 4-[(3-Cyclopropyl-1,2,4-thiadiazol-5-yl)oxy]-2,5-dimethyl-N-[(1E)-thiomorpholin-4-ylmethyl-idene]aniline]: the “log P acidic” value in [1] was 1.73. Take `Cc1cc(Oc2nc(C3(Cl)CC3)cs2)c(C)cc1/N=C/N1CCCCC1` [Compound 6, 4-{[4-(1-Chlorocyclopropyl)-1,3-thiazol-2-yl]oxy}-2,5-dimethyl-N-[(1E)-piperidin-1-ylmethyl-idene]aniline]: the “log P neutral” value in series [1] (neutral) worked out at 5.49. With `Cc1cc(Oc2nc(C3(C)CC3)ns2)c(C)cc1/N=C/N1CCCCC1` [Compound 11, 5-Dimethyl-4-{[3-(1-methylcyclopropyl)-1,2,4-thiadiazol-5-yl]oxy}-N-[(1E)-piperidin-1-yl-methylidene]aniline], the “log P acidic” value in series [1] is 2.13. The same measure, in the same setting: the result for `Cc1cc(Oc2nc(C3(C)CC3)cs2)c(C)cc1/N=C/N1CCCCC1` [Compound 23, 2,5-Dimethyl-4-{[4-(1-methylcyclopropyl)-1,3-thiazol-2-yl]oxy}-N-[(1E)-piperidin-1-ylmethyl-idene]aniline] reads 2.05. The term logP denotes the decadic logarithm of the partition coefficient of the neutral form, usually between octanol and water. Turning to `CCN(C)C=Nc1cc(C)c(Oc2nc(C3(C)CC3(Cl)Cl)ns2)cc1C` (stereo not shown) [Compound 25, N′-(4-{[3-(2,2-Dichloro-1-methylcyclopropyl)-1,2,4-thiadiazol-5-yl]oxy}-2,5-dimethylphenyl)-N-ethyl-N-methylimidoformamide], the pest or weed control at 500 ppm with Pyrenophora teres and with Alternaria solani was not below 70% in each case. This molecule came in with a degree of effectiveness in the series with Cochliobolus miyabeanus not below 80%. In “physchem”, this molecule returned a log partition coefficient (logP) of 2.03. Further, the pest or weed control at 100 ppm in the series on Uromyces appendiculatus was not below 70%; with Phakopsora pachyrhizi, not below 80%; in the series on Sphaerotheca fuliginea it was not below 70%.

Regarding “[5-Chloro-4-(1-methylcyclopropyl)-1,3-thiazol-2-yl]oxy-2,5-dimethylaniline”, the “log P (pH 2.3)” value stood at 4.13.
